The source of these data is patent publication US10450585B2, “Delivery methods and compositions for nuclease-mediated genome engineering” (Sangamo Therapeutics, Inc., priority 2015, dated 2019).

The subject of assay [1] is human patient-derived primary hepatocytes. Nature of the assay: AAV2/6 ZFN transduction of primary hepatocytes with PDGFR inhibitor; % indels. The assay is classed as cell-based. Conditions: 9 μM.
Method: For human hepatocytes, 48-well cell culture dishes were purchased pre-coated with collagen (Life Technologies). Plates were incubated for 1 hour at 37° C. Thawing/plating media was prepared by combining 18 mL InVitroGRO CP medium (BioreclamationIVT) and 400 μL Torpedo antibiotic mix (Celsis In Vitro Technologies). Once the plates were prepared, the plate-able human hepatocytes (Lot# AKB), were transferred from the liquid nitrogen vapor phase directly into the 37° C. water bath and thawed under gently stirring. The cells were transferred directly into a 50 ml conical tube containing 5 mL of pre-warmed thawing/plating medium. To retrieve all the cells, the vial was washed with 1 mL of thawing/plating medium, which was added to the cells. Following resuspension of the cells, a small aliquot (20 μL) was removed to perform a cell count and to determine cell viability using trypan blue solution (1:5; Corning, Cat#25-900-C1). The cells were then centrifuged at 75×g for 5 minutes, the supernatant was removed and the cells were resuspended at 1e6 cells/mL. Cells were seeded at 3e5 cells/well in the coated 48-well plates. Cells were then incubated in a 37° C./5% CO2 incubator.
One day after the cells were plated, cells were switched to HCM maintenance medium (Lonza, HBM and HCM SingleQuots). […] Genomic DNA was extracted and analyzed by deep sequencing (MiSeq) at the albumin locus.
In assay [2] the test system is Hep3B (human hepatoma cell line) cells. As to the kind of experiment: AAV2/6 delivery of albumin ZFNs to Hep3B cells after growth factor receptor inhibitor pre-incubation; % indels by deep sequencing. Conditions: serum-free pre-incubation, AAV2/6 albumin ZFNs MOI 3e4 vg/cell. The assay is classed as cell-based. On the procedure: In order to test the relative contribution of co-receptors to AAV transduction, inhibitors against epidermal growth factor receptor (EGFR), hepatocyte growth factor receptor (HGFR), fibroblast growth factor receptor (FGFR) and platelet-derived growth factor receptor (PDGFR) were used prior to in vitro AAV2/6 transduction experiments in Hep3B (human hepatoma cell line) cells using zinc-finger nucleases (ZFNs) targeting the human albumin locus. Hep3B cells were plated at a density of 1×10^5 cells per well in a 48-well tissue culture plate in 300 μL complete growth media the day before transduction with AAV2/6. On the morning of transduction, the cells were washed three times with serum-free media and incubated in the serum-free media for three hours. Growth factor receptor inhibitors were added to the wells and incubated for one hour. AAV2/6 particles to deliver ZFNs targeted to the albumin locus were then added to the wells. After three hours, serum was added to the wells to a final concentration of 10%. The cells were harvested on day 4 post-transduction. Genomic DNA was extracted and analyzed by deep sequencing (MiSeq) at the albumin locus. The growth factor receptor inhibitors used are shown below in Table 1, and they were used in the experiment in the concentrations indicated in FIG. 3, where each inhibitor is labeled by its target.

SMILES strings stand for the structures.

On to `CC1(COc2ccc3c(c2)ncn3-c2ccc3cccc(N4CCC(N)CC4)c3n2)COC1` [Crenolanib], for which the “indels detected as compared to no inhibitor” value in assay [1] is listed as “large increase”.

`CCN1CCN(c2ccc(Nc3cc(N(C)C(=O)Nc4c(Cl)c(OC)cc(OC)c4Cl)ncn3)cc2)CC1` [FGFRi, BGJ398]: the “AAV transduction compared to control (% indels)” value (“AAV transduction … (% indels)” for short) in assay [2] is “mild stimulation”.

Regarding `Cc1[nH]c(/C=C2\C(=O)Nc3ccc(S(=O)(=O)N(C)c4cccc(Cl)c4)cc32)c(C)c1C(=O)N1CCN(C)CC1` [HGFRi, SU11274], in assay [2], the “AAV transduction … (% indels)” value is listed as “mild stimulation”.

Regarding `COc1cc2ncnc(Nc3ccc(F)c(Cl)c3)c2cc1OCCCN1CCOCC1` [EGFRi, Gefitinib], the “AAV transduction … (% indels)” value in assay [2] is “mild inhibition”.
